Experimental data reported in patent US5840684A, “Glycopeptide antibiotic derivatives” (Eli Lilly and Company, priority 1995, dated 1998).
≈ marks a conversion by molar mass, not a printed value.

Legend:
[1] = tested on: Staphylococcus aureus X778; test: broth micro-dilution MIC; assay type: cell-based
Experimental: (§1) The MIC's were determined using a standard broth micro-dilution assay.

[2] = tested on: Staphylococcus aureus 447; test: broth micro-dilution MIC; assay type: cell-based
Experimental: as §1

[3] = tested on: Staphylococcus aureus X400; test: broth micro-dilution MIC; assay type: cell-based
Experimental: as §1

[4] = tested on: Staphylococcus aureus SA1199A; test: broth micro-dilution MIC; assay type: cell-based
Experimental: as §1

[5] = tested on: Staphylococcus aureus SA1199; test: broth micro-dilution MIC; assay type: cell-based
Experimental: as §1

[6] = tested on: Entercoccus faecium 180-1; test: broth micro-dilution MIC; assay type: cell-based
Experimental: as §1

[7] = tested on: Streptococcus pyogenes C203; test: broth micro-dilution MIC; assay type: cell-based
Experimental: as §1

[8] = tested on: Staphylococcus aureus 489; test: broth micro-dilution MIC; assay type: cell-based
Experimental: as §1

[9] = tested on: Streptococcus pyogenes; test: mouse protection, experimentally-induced infection; assay type: in vivo; conditions: mice infected with Streptococcus pyogenes, two doses
[10] = tested on: vancomycin-susceptible enterococci; test: broth micro-dilution, mean geometric MIC; assay type: cell-based, Enterococcus faecium and Enterococcus faecalis; conditions: enterococci, 24-hour incubation
[11] = tested on: Staphylococcus aureus S13E; assay type: cell-based
Experimental: as §1

[12] = tested on: Staphylococcus aureus SA1199B; assay type: cell-based
Experimental: as §1

[13] = tested on: vancomycin-resistant enterococci; test: broth micro-dilution, mean geometric MIC; assay type: cell-based, Enterococcus faecium and Enterococcus faecalis; conditions: enterococci, 24-hour incubation
[14] = tested on: Streptococcus pneumoniae; test: mouse protection, experimentally-induced infection; assay type: in vivo; conditions: mice infected with Streptococcus pneumoniae, two doses
[15] = tested on: Entercoccus faecium 180; test: broth micro-dilution MIC; assay type: cell-based; conditions: Entercoccus faecium 180
Experimental: (§2) The formula I compounds have in vitro and in vivo activity against Gram-positive pathogenic bacteria. The MIC's were determined using a standard broth micro-dilution assay.

[16] = tested on: Streptococcus pneumoniae P1; test: broth micro-dilution MIC; assay type: cell-based
Experimental: as §2

[17] = tested on: Staphylococcus haemolyticus 105; test: broth micro-dilution MIC; assay type: cell-based
Experimental: as §2

[18] = tested on: Staphylococcus haemolyticus 415; test: broth micro-dilution MIC; assay type: cell-based
Experimental: as §2

[19] = tested on: Enterococcus gallinarum 245; test: broth micro-dilution MIC; assay type: cell-based; conditions: Enterococcus gallinarum 245
Experimental: as §2

[20] = tested on: Entercoccus faecium 2041; test: broth micro-dilution MIC; assay type: cell-based; conditions: Entercoccus faecium 2041
Experimental: as §2

[21] = tested on: Staphylococcus epidermidis 270; test: broth micro-dilution MIC; assay type: cell-based
Experimental: as §2

[22] = tested on: Entercoccus faecium 276; test: broth micro-dilution MIC; assay type: cell-based
Experimental: as §1

[23] = tested on: Staphylococcus aureus 491; test: broth micro-dilution MIC; assay type: cell-based
Experimental: as §1

[24] = tested on: Staphylococcus aureus 446; test: broth micro-dilution MIC; assay type: cell-based
Experimental: as §1

SMILES	MIC [1] [µg/mL]	MIC [2] [µg/mL]	MIC [3] [µg/mL]	MIC [4]	MIC [5] [µg/mL]	MIC [6] [µg/mL]	MIC [7] [µg/mL]	MIC [8] [µg/mL]	ED50 [9] [mg/kg/2]	mean geometric MIC, Vancomycin Sensitive Strains [10] [µg/mL]	MIC [11] [µg/mL]	MIC [12]	mean geometric MIC, Vancomycin Resistant Strains [13] [µg/mL]	ED50 [14] [mg/kg/2]	MIC [16] [µg/mL]	MIC [17] [µg/mL]	MIC [18] [µg/mL]	MIC [19] [µg/mL]	MIC [20] [µg/mL]	MIC [21] [µg/mL]	further results
CNC(CC(C)C)C(=O)NC1C(=O)NC(CC(N)=O)C(=O)NC2C(=O)NC3C(=O)NC(C(=O)NC(C(=O)O)c4cc(O)cc(O)c4-c4cc3ccc4O)C(OC3CC(C)(N)C(O)C(C)O3)c3ccc(c(Cl)c3)Oc3cc2cc(c3OC2OC(CO)C(O)C(O)C2OC2CC(C)(NCc3ccc(OCCCc4ccccc4)cc3)C(O)C(C)O2)Oc2ccc(cc2Cl)C1O (centres unmarked) [Compound 223]	1 (≈ 0.55 µM)	0.5 (≈ 0.275 µM)	1 (≈ 0.55 µM)	≤ 0.06 µg/mL	2 (≈ 1.1 µM)	≤ 0.06	≤ 0.06	1 (≈ 0.55 µM)	< 0.031	0.055	0.5 (≈ 0.275 µM)	1 µg/mL (≈ 0.55 µM)	0.79	< 0.031	≤ 0.06	1 (≈ 0.55 µM)	1 (≈ 0.55 µM)	1 (≈ 0.55 µM)	≤ 0.06	0.5 (≈ 0.275 µM)	MIC [15]: ≤ 0.06 µg/mL
CN[C@H](CC(C)C)C(=O)N[C@H]1C(=O)N[C@@H](CC(N)=O)C(=O)N[C@H]2C(=O)N[C@H]3C(=O)N[C@H](C(=O)N[C@H](C(=O)O)c4cc(O)cc(O)c4-c4cc3ccc4O)[C@H](O[C@H]3C[C@](C)(N)[C@@H](O)[C@H](C)O3)c3ccc(c(Cl)c3)Oc3cc2cc(c3O[C@@H]2O[C@H](CO)[C@@H](O)[C@H](O)[C@H]2O[C@H]2C[C@](C)(NCc3ccc(-c4ccc(C)cc4)cc3)[C@@H](O)[C@H](C)O2)Oc2ccc(cc2Cl)[C@H]1O [Compound 97]		1 (≈ 0.564 µM)	1 (≈ 0.564 µM)	≤ 0.06 µg/mL	2 (≈ 1.13 µM)	≤ 0.06	≤ 0.06		0.066	0.054		1 µg/mL (≈ 0.564 µM)	0.71	0.038	≤ 0.06	2 (≈ 1.13 µM)	2 (≈ 1.13 µM)	2 (≈ 1.13 µM)	≤ 0.06	1 (≈ 0.564 µM)	MIC [22]: ≤ 0.06 µg/mL; MIC [23]: 0.5 µg/mL (≈ 0.282 µM); MIC [24]: 1 µg/mL (≈ 0.564 µM)
CNC(CC(C)C)C(=O)NC1C(=O)NC(CC(N)=O)C(=O)NC2C(=O)NC3C(=O)NC(C(=O)NC(C(=O)O)c4cc(O)cc(O)c4-c4cc3ccc4O)C(OC3CC(C)(N)C(O)C(C)O3)c3ccc(c(Cl)c3)Oc3cc2cc(c3OC2OC(CO)C(O)C(O)C2OC2CC(C)(NCc3ccc(OCc4ccc([N+](=O)[O-])cc4)cc3)C(O)C(C)O2)Oc2ccc(cc2Cl)C1O (centres unmarked) [Compound 131]	0.5 (≈ 0.273 µM)	1 (≈ 0.545 µM)	1 (≈ 0.545 µM)	≤ 0.06 µg/mL		≤ 0.06	≤ 0.06	1 (≈ 0.545 µM)	< 0.031	0.028	1 (≈ 0.545 µM)	1 µg/mL (≈ 0.545 µM)	0.84	0.077	≤ 0.06	1 (≈ 0.545 µM)	2 (≈ 1.09 µM)	2 (≈ 1.09 µM)	≤ 0.06	1 (≈ 0.545 µM)	MIC [24]: 2 µg/mL (≈ 1.09 µM); MIC [15]: ≤ 0.06 µg/mL
CCOc1cc(CNC2(C)CC(OC3C(Oc4c5cc6cc4Oc4ccc(cc4Cl)C(OC4CC(C)(N)C(O)C(C)O4)C4NC(=O)C(NC(=O)C6NC(=O)C(CC(N)=O)NC(=O)C(NC(=O)C(CC(C)C)NC)C(O)c6ccc(c(Cl)c6)O5)c5ccc(O)c(c5)-c5c(O)cc(O)cc5C(C(=O)O)NC4=O)OC(CO)C(O)C3O)OC(C)C2O)ccc1OCC1CCCCC1 (centres unmarked) [Compound 105]	0.5 (≈ 0.272 µM)	0.5 (≈ 0.272 µM)	0.5 (≈ 0.272 µM)		1 (≈ 0.544 µM)	≤ 0.06	≤ 0.06	0.5 (≈ 0.272 µM)	0.12	0.062	0.5 (≈ 0.272 µM)	0.5 µg/mL (≈ 0.272 µM)	0.84	0.041	≤ 0.06	1 (≈ 0.544 µM)	1 (≈ 0.544 µM)	1 (≈ 0.544 µM)			
CN[C@H](CC(C)C)C(=O)N[C@H]1C(=O)N[C@@H](CC(N)=O)C(=O)N[C@H]2C(=O)N[C@H]3C(=O)N[C@H](C(=O)N[C@H](C(=O)O)c4cc(O)cc(O)c4-c4cc3ccc4O)[C@H](O[C@H]3C[C@](C)(N)[C@@H](O)[C@H](C)O3)c3ccc(cc3)Oc3cc2cc(c3O[C@@H]2O[C@H](CO)[C@@H](O)[C@H](O)[C@H]2O[C@H]2C[C@](C)(N)[C@@H](O)[C@H](C)O2)Oc2ccc(cc2Cl)[C@H]1O [Compound A82846A, A82846A, reference compound]	0.125 (≈ 0.0802 µM)		0.125 (≈ 0.0802 µM)	≤ .06 µg/mL	0.125 (≈ 0.0802 µM)	0.125 (≈ 0.0802 µM)		0.5 (≈ 0.321 µM)	0.084	1.7	0.125 (≈ 0.0802 µM)	≤ .06 µg/mL		0.39		0.5 (≈ 0.321 µM)	1 (≈ 0.642 µM)	0.125 (≈ 0.0802 µM)	0.125 (≈ 0.0802 µM)		MIC [22]: 0.125 µg/mL (≈ 0.0802 µM); MIC [15]: 16 µg/mL (≈ 10.3 µM)
CCCCCCCCCOc1ccc(CNC2(C)CC(OC3C(Oc4c5cc6cc4Oc4ccc(cc4Cl)C(OC4CC(C)(N)C(O)C(C)O4)C4NC(=O)C(NC(=O)C6NC(=O)C(CC(N)=O)NC(=O)C(NC(=O)C(CC(C)C)NC)C(O)c6ccc(c(Cl)c6)O5)c5ccc(O)c(c5)-c5c(O)cc(O)cc5C(C(=O)O)NC4=O)OC(CO)C(O)C3O)OC(C)C2O)cc1 (centres unmarked) [Compound 8]	8 (≈ 4.38 µM)	8 (≈ 4.38 µM)	8 (≈ 4.38 µM)	2 µg/mL (≈ 1.1 µM)	2 (≈ 1.1 µM)	0.5 (≈ 0.274 µM)	≤ 0.06		> 0.5		8 (≈ 4.38 µM)		1.0	0.273	≤ 0.06	8 (≈ 4.38 µM)	8 (≈ 4.38 µM)	8 (≈ 4.38 µM)	4 (≈ 2.19 µM)	4 (≈ 2.19 µM)	MIC [22]: 4 µg/mL (≈ 2.19 µM); MIC [23]: 4 µg/mL (≈ 2.19 µM); MIC [24]: 2 µg/mL (≈ 1.1 µM); MIC [15]: 1 µg/mL (≈ 0.548 µM)
CN[C@H](CC(C)C)C(=O)N[C@H]1C(=O)N[C@@H](CC(N)=O)C(=O)N[C@H]2C(=O)N[C@H]3C(=O)N[C@H](C(=O)N[C@H](C(=O)O)c4cc(O)cc(O)c4-c4cc3ccc4O)[C@H](O[C@H]3C[C@](C)(N)[C@@H](O)[C@H](C)O3)c3ccc(c(Cl)c3)Oc3cc2cc(c3O[C@@H]2O[C@H](CO)[C@@H](O)[C@H](O)[C@H]2O[C@H]2C[C@](C)(NCc3ccc(Oc4ccc(Cl)cc4)c([N+](=O)[O-])c3)[C@@H](O)[C@H](C)O2)Oc2ccc(cc2Cl)[C@H]1O [Compound 94]	0.5 (≈ 0.27 µM)	0.5 (≈ 0.27 µM)	1 (≈ 0.539 µM)	≤ 0.06 µg/mL	0.5 (≈ 0.27 µM)	≤ 0.06	≤ 0.06	2 (≈ 1.08 µM)	0.16	0.041	2 (≈ 1.08 µM)	2 µg/mL (≈ 1.08 µM)	0.50	0.049	≤ 0.06	2 (≈ 1.08 µM)	2 (≈ 1.08 µM)	2 (≈ 1.08 µM)	≤ 0.06	1 (≈ 0.539 µM)	MIC [22]: 0.125 µg/mL (≈ 0.0674 µM); MIC [23]: 0.5 µg/mL (≈ 0.27 µM); MIC [24]: 1 µg/mL (≈ 0.539 µM)
